Data from ChEMBL document CHEMBL4483862, “Open-source discovery of chemical leads for next-generation chemoprotective antimalarials” (2018).

System: Plasmodium berghei
Assay: Luciferase/luciferin-expressing antifolate-resistant parasites were used to infect a culture of HepG2 cells that were pre-incubated with compounds. Infected hepatocytes emit light due to the luciferase reaction. Assay results are presented as the percent inhibition of light emission compared to control. […]
Assay type: functional
Settings: sporozoite; for IC90: read-out: LUCIFERASE INFECTION ASSAY - IC90
[1] = read-out: LUCIFERASE INFECTION ASSAY - IC50

Row | SMILES | IC90 [µM] | IC50 [1] [µM] | further results
1 | COCOc1ccc(-c2cc(-c3cccc(NC(C)=O)c3)cnc2N)cc1 | 5.97 |  | IC50 (PBLUC_HILL_SLOPE 4.33, PBLUC_R_SQUARED 0.629, read-out: LUCIFERASE INFECTION ASSAY - IC50): 3.59 µM
2 | COc1cc2[nH]c(C(=O)Nc3cccc(C(F)(F)F)c3)cc2c(OC)c1OC | 8.28 | 7.63 | 
3 | COCOc1ccc(-c2cc(-c3ccc(OC)c(OC)c3)cnc2N)cc1 | > 9.01 |  | IC50 (PBLUC_HILL_SLOPE 4.72, PBLUC_R_SQUARED 0.371, read-out: LUCIFERASE INFECTION ASSAY - IC50): 7.27 µM
4 | FC(F)(F)Oc1cccc(-c2ccc3ncc(-c4ccoc4)n3n2)c1 | > 10 | > 10 | 
5 | O=C(CSc1ccc(S(=O)(=O)N2CCCCCC2)cn1)N1CCN(c2ccccc2F)CC1 | > 10 |  | IC50 (HEPG2TOX_HILL_SLOPE 8.02, HEPG2TOX_R_SQUARED 0.252, PBLUC_HILL_SLOPE 16.3, 0.0846, PBLUC_R_SQUARED 0.285, 0.0684, read-out: LUCIFERASE INFECTION ASSAY - IC50): 9.76 µM
6 | Cc1ccc(COC(=O)c2cccc(S(=O)(=O)NCc3ccccc3)c2)cc1 | 4.92 |  | IC50 (HEPG2TOX_HILL_SLOPE 2.79, HEPG2TOX_R_SQUARED 0.991, PBLUC_HILL_SLOPE 8.82, PBLUC_R_SQUARED 0.278, read-out: LUCIFERASE INFECTION ASSAY - IC50): 3.84 µM
7 | COc1ccc(CNc2nc3cnc(Nc4cccc(Cl)c4)cc3n2C)cc1OC | 3.92 |  | IC50 (HEPG2TOX_HILL_SLOPE 1.65, HEPG2TOX_R_SQUARED 0.962, PBLUC_HILL_SLOPE 14.9, PBLUC_R_SQUARED 0.209, read-out: LUCIFERASE INFECTION ASSAY - IC50): 3.38 µM
8 | Cc1ccc(/C=C2\Oc3cc(O)cc(C)c3C2=O)cc1 | 7.36 |  | IC50 (FFLUC_HILL_SLOPE 2.5, FFLUC_R_SQUARED 0.135, PBLUC_HILL_SLOPE 2.13, PBLUC_R_SQUARED 0.666, read-out: LUCIFERASE INFECTION ASSAY - IC50): 2.63 µM
9 | Cc1ccn2cc(C(=O)Nc3nnc(CC(C)C)s3)nc2c1 | 3.7 |  | IC50 (HEPG2TOX_HILL_SLOPE 9.95, HEPG2TOX_R_SQUARED 0.674, PBLUC_HILL_SLOPE 11.8, PBLUC_R_SQUARED 0.71, read-out: LUCIFERASE INFECTION ASSAY - IC50): 3.07 µM
10 | Cc1nn(-c2ccccc2)c(Cl)c1/C=N/OCC(=O)Nc1cccc(C(F)(F)F)c1 | 9.91 |  | IC50 (PBLUC_HILL_SLOPE 4.91, 2.77, PBLUC_R_SQUARED 0.190, 0.335, read-out: LUCIFERASE INFECTION ASSAY - IC50): 5.6 µM
11 | CN1/C(=C\C=N\c2cc(Cl)c([N+](=O)[O-])cc2O)C(C)(C)c2ccccc21 | > 10 |  | IC50 (HEPG2TOX_HILL_SLOPE 12.2, 11.0, HEPG2TOX_R_SQUARED 0.457, 0.953, PBLUC_HILL_SLOPE 3.42, PBLUC_R_SQUARED 0.319, read-out: LUCIFERASE INFECTION ASSAY - IC50): 5.58 µM
12 | Cc1cc(C(=O)N(C(=O)NC2CCCCC2)C2CCCCC2)c(C)n1-c1ccccc1 | 8.67 | 1.12 | 
13 | O=C1/C(=C\c2cccnc2)SC(=S)N1Cc1ccncc1 | > 10.5 |  | IC50 (FFLUC_HILL_SLOPE 1.57, FFLUC_R_SQUARED 0.87, HEPG2TOX_HILL_SLOPE 6.45, HEPG2TOX_R_SQUARED 0.698, PBLUC_HILL_SLOPE 14.6, PBLUC_R_SQUARED 0.23, read-out: LUCIFERASE INFECTION ASSAY - IC50): 10.5 µM
14 | O=C(Nc1cccc(S(=O)(=O)N2CCCCC2)c1)c1cn(-c2ccccc2C(F)(F)F)nn1 | > 10 |  | IC50 (FFLUC_HILL_SLOPE 0.647, FFLUC_R_SQUARED 0.258, read-out: LUCIFERASE INFECTION ASSAY - IC50): > 10 µM
15 | COc1ccc(-c2cc(C(=O)N[C@@H](CCSC)c3nc4ccccc4[nH]3)c3ccccc3n2)cc1OC | 8.04 |  | IC50 (PBLUC_HILL_SLOPE 3.46, PBLUC_R_SQUARED 0.459, read-out: LUCIFERASE INFECTION ASSAY - IC50): 4.26 µM
16 | CN(C)Cc1ccccc1NC(=O)Nc1ccc(Cl)cc1 | 7.23 |  | IC50 (PBLUC_HILL_SLOPE 3.91, PBLUC_R_SQUARED 0.658, read-out: LUCIFERASE INFECTION ASSAY - IC50): 4.13 µM
17 | Oc1cc(-c2ccccc2)nc2ccccc12 | 0.307 |  | IC50 (HEPG2TOX_HILL_SLOPE 0.704, HEPG2TOX_R_SQUARED 0.901, PBLUC_HILL_SLOPE 3.71, PBLUC_R_SQUARED 0.852, read-out: LUCIFERASE INFECTION ASSAY - IC50): 0.17 µM
18 | CC(CNC(=O)C1CCN(S(=O)(=O)c2cccs2)CC1)c1nc2ccccc2n1C(F)F (stereo unspecified) | > 10 | > 10 | 
19 | Cc1cc(/C=N/Nc2ccnc3cc(Cl)ccc23)c(C)n1-c1cc(S(=O)(=O)N2CCOCC2)ccc1N1CCCC1 | > 10 |  | IC50 (FFLUC_HILL_SLOPE 15.8, FFLUC_R_SQUARED 0.537, PBLUC_HILL_SLOPE 3.6, PBLUC_R_SQUARED 0.465, read-out: LUCIFERASE INFECTION ASSAY - IC50): 6.84 µM

Row | SMILES | IC90 [µM] | IC50 [1] [µM] | further results
20 | O=[N+]([O-])c1ccc(Sc2ccc(F)cc2)c2nonc12 | > 11.3 |  | IC50 (FFLUC_HILL_SLOPE 1.53, FFLUC_R_SQUARED 0.17, HEPG2TOX_HILL_SLOPE 11.1, HEPG2TOX_R_SQUARED 0.647, PBLUC_HILL_SLOPE 22.5, PBLUC_R_SQUARED 0.184, read-out: LUCIFERASE INFECTION ASSAY - IC50): 10.5 µM
21 | O=C1C=CC(=O)N1c1cc(Cl)cc(Cl)c1 | > 13.6 |  | IC50 (FFLUC_HILL_SLOPE 11.6, FFLUC_R_SQUARED 0.448, PBLUC_HILL_SLOPE 9.84, PBLUC_R_SQUARED 0.0939, read-out: LUCIFERASE INFECTION ASSAY - IC50): > 13.6 µM
22 | CC(=O)N(c1nn(CN(C2CC2)C2CCS(=O)(=O)C2)c(=S)s1)C1CC1 (stereo unspecified) | > 10 |  | IC50 (FFLUC_HILL_SLOPE 12.8, FFLUC_R_SQUARED 0.42, read-out: LUCIFERASE INFECTION ASSAY - IC50): > 10 µM
23 | Cc1cccc(-c2cn3c(-c4ccc(CO)cc4)cnc3cn2)c1C | > 10 |  | IC50 (PBLUC_HILL_SLOPE 11.7, PBLUC_R_SQUARED 0.283, read-out: LUCIFERASE INFECTION ASSAY - IC50): 8.31 µM
24 | CC(=O)c1c(C)[nH]c(C(=O)Nc2ccc3ccccc3n2)c1C | 1.16 | 0.934 | 
25 | Cc1noc2nc(C3CC3)cc(C(=O)N3CCC(C(N)=O)CC3)c12 | > 10 | > 10 | 
26 | O=S(=O)(c1ccc(Br)s1)N(c1ccc2c(c1)OC1(CCCC1)O2)S(=O)(=O)c1ccc(Br)s1 | > 10 | 4.98 | 
27 | CCN1CCC(N(C)c2ccc(S(=O)(=O)N3CCCCCC3)cc2[N+](=O)[O-])CC1 | > 10 |  | IC50 (PBLUC_HILL_SLOPE 3.35, PBLUC_R_SQUARED 0.446, read-out: LUCIFERASE INFECTION ASSAY - IC50): 6.31 µM
28 | COc1cc(-c2[nH]nc3ccnc(-c4cccc(OC(F)(F)F)c4)c23)cc(OC)c1OC | > 10 | > 10 | 
29 | O=C(Cn1cnc2c(cnn2-c2ccccc2[N+](=O)[O-])c1=O)Nc1ccc(OCc2ccccc2)cc1 | > 10 |  | IC50 (PBLUC_HILL_SLOPE 3.88, PBLUC_R_SQUARED 0.658, read-out: LUCIFERASE INFECTION ASSAY - IC50): 7.44 µM
30 | NS(=O)(=O)c1ccc(CNC(=O)c2ccc(Cn3cccn3)cc2)s1 | > 10 |  | IC50 (HEPG2TOX_HILL_SLOPE 0.983, HEPG2TOX_R_SQUARED 0.0206, read-out: LUCIFERASE INFECTION ASSAY - IC50): > 10 µM
31 | COc1ccc(S(=O)(=O)Nc2ccc3c(c2)CS(=O)(=O)C3)cc1 | > 9.34 |  | IC50 (FFLUC_HILL_SLOPE 6.24, FFLUC_R_SQUARED 0.631, read-out: LUCIFERASE INFECTION ASSAY - IC50): > 9.34 µM
32 | CNc1nc2cnc(-c3cncc(OC)c3)cc2n1Cc1ccc(OC)c(OC)c1 | > 10 |  | IC50 (PBLUC_HILL_SLOPE 6.98, PBLUC_R_SQUARED 0.0782, read-out: LUCIFERASE INFECTION ASSAY - IC50): 8.17 µM
33 | CCCCNC(=S)Nc1cc(C(F)(F)F)ccc1N1CCOCC1 | > 10 | > 10 | 
34 | CC1CCCC(N=C2NN=C(c3c[nH]c(C(=O)N4CCCC4)c3)CS2)C1C (stereo unspecified) | > 10 |  | IC50 (HEPG2TOX_HILL_SLOPE 0.0793, HEPG2TOX_R_SQUARED 0.0179, read-out: LUCIFERASE INFECTION ASSAY - IC50): > 10 µM
35 | Cc1ccc(Oc2ccc(NC(=O)CCc3cccnc3)cc2)cc1 | 9.55 |  | IC50 (PBLUC_HILL_SLOPE 16.6, PBLUC_R_SQUARED 0.382, read-out: LUCIFERASE INFECTION ASSAY - IC50): 8.37 µM
36 | COc1ccc(S(=O)(=O)NN(C)c2nc3ccccc3nc2C(F)(F)F)cc1 | > 8 | 5.18 | 
37 | Cc1ccc(C)c(OCC(O)Cn2nc(C)c3ccccc3c2=O)c1C (stereo unspecified) | > 10 | > 10 | 
38 | CSc1sc(-c2cc[nH]n2)c(-c2ccccc2)c1C#N | > 11.1 | > 11.1 | 
